Source: PubChem BioAssay AID248 (DTP/NCI, 2004)
Values joined by “and” are separate entries in the source; they are usually repeats but may differ in a detail not shown here. Equal entries are not always repeated. Inconclusive results and toxic doses are left out.

System: L1210 leukemia ip in BDF1 mice, survival T/C
Test: NCI In Vivo Anticancer Drug Screen. Data for tumor model L1210 Leukemia (intraperitoneal) in B6D2F1 (BDF1) mice
Settings: endpoint: mean survival time, higher = longer survival
In short: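 Transplanted-tumor mice were given test agent; controls received vehicle only. Survival readings from the two groups were divided (treated over control).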

CCCN(CCC)CC(=O)N1CC(=O)Nc2ccccc21
T/C (dose: 25.0 mg/kg/injection, schedule: Q01DX009 (ip), vehicle: acetone): 98 % of control
T/C (dose: 50.0 mg/kg/injection, schedule: Q01DX009 (ip), vehicle: acetone): 96 % of control
T/C (dose: 100.0 mg/kg/injection, schedule: Q01DX009 (ip), vehicle: acetone): 95 % of control
T/C (dose: 100.0 mg/kg/injection, schedule: Q04DX003 (ip), vehicle: acetone): 103 % of control
T/C (dose: 200.0 mg/kg/injection, schedule: Q04DX003 (ip), vehicle: acetone): 103 % of control

Nc1nc(N)c2cc(CNc3ccc(C(=O)NC(CC(=O)O)C(=O)O)cc3)ccc2n1 (stereo unspecified)
T/C (dose: 0.07 mg/kg/injection, schedule: Q01DX009 (ip), vehicle: saline): 97 % of control and 100 % of control
T/C (dose: 0.14 mg/kg/injection, schedule: Q01DX009 (ip), vehicle: saline): 110 % of control and 120 % of control
T/C (dose: 0.25 mg/kg/injection, schedule: Q01DX009 (sc), vehicle: saline): 110 % of control
T/C (dose: 0.5 mg/kg/injection, schedule: Q01DX009 (sc), vehicle: saline): 120 % of control
T/C (dose: 0.56 mg/kg/injection, schedule: Q01DX009 (ip), vehicle: saline): 164 % of control
T/C (dose: 0.67 mg/kg/injection, schedule: Q01DX009 (ip), vehicle: saline): 157 % of control and 189 % of control
T/C (dose: 1.0 mg/kg/injection, schedule: Q01DX009 (ip), vehicle: saline): 178 % of control
T/C (dose: 1.0 mg/kg/injection, schedule: Q01DX009 (sc), vehicle: saline): 158 % of control
T/C (dose: 1.13 mg/kg/injection, schedule: Q01DX009 (ip), vehicle: saline): 153 % of control and 193 % of control and 195 % of control
T/C (dose: 1.25 mg/kg/injection, schedule: Q01DX009 (ip), vehicle: saline): 173 % of control and 177 % of control
T/C (dose: 2.0 mg/kg/injection, schedule: Q01DX001 (ip), vehicle: saline): 118 % of control
T/C (dose: 2.0 mg/kg/injection, schedule: Q01DX001 (iv), vehicle: saline): 117 % of control
T/C (dose: 2.0 mg/kg/injection, schedule: Q01DX001 (sc), vehicle: saline): 112 % of control
T/C (dose: 2.0 mg/kg/injection, schedule: Q01DX009 (ip), vehicle: saline): 154 % of control
T/C (dose: 2.0 mg/kg/injection, schedule: Q01DX009 (oral), vehicle: saline): 110 % of control
T/C (dose: 2.0 mg/kg/injection, schedule: Q01DX009 (sc), vehicle: saline): 188 % of control
T/C (dose: 2.0 mg/kg/injection, schedule: Q08DX002 (ip), vehicle: saline): 118 % of control
T/C (dose: 2.0 mg/kg/injection, schedule: Q## X008 (ip), vehicle: saline): 123 % of control
T/C (dose: 2.0 mg/kg/injection, schedule: Q## X024 (ip), vehicle: saline): 154 % of control
T/C (dose: 2.25 mg/kg/injection, schedule: Q01DX009 (ip), vehicle: saline): 174 % of control and 177 % of control
T/C (dose: 4.0 mg/kg/injection, schedule: Q01DX001 (ip), vehicle: saline): 119 % of control
T/C (dose: 4.0 mg/kg/injection, schedule: Q01DX001 (iv), vehicle: saline): 119 % of control
T/C (dose: 4.0 mg/kg/injection, schedule: Q01DX001 (sc), vehicle: saline): 119 % of control
T/C (dose: 4.0 mg/kg/injection, schedule: Q01DX009 (oral), vehicle: saline): 110 % of control
T/C (dose: 4.0 mg/kg/injection, schedule: Q01DX009 (sc), vehicle: saline): 120 % of control
T/C (dose: 4.0 mg/kg/injection, schedule: Q## X003 (ip), vehicle: saline): 152 % of control
T/C (dose: 4.0 mg/kg/injection, schedule: Q## X024 (ip), vehicle: saline): 185 % of control
T/C (dose: 4.5 mg/kg/injection, schedule: Q01DX009 (ip), vehicle: saline): 95 % of control and 117 % of control
T/C (dose: 5.0 mg/kg/injection, schedule: Q01DX009 (ip), vehicle: saline): 96 % of control and 101 % of control and 91 % of control
T/C (dose: 8.0 mg/kg/injection, schedule: Q01DX001 (ip), vehicle: saline): 123 % of control
T/C (dose: 8.0 mg/kg/injection, schedule: Q01DX001 (iv), vehicle: saline): 118 % of control
T/C (dose: 8.0 mg/kg/injection, schedule: Q01DX009 (oral), vehicle: saline): 109 % of control
T/C (dose: 8.0 mg/kg/injection, schedule: Q03HX016 (ip), vehicle: saline): 150 % of control
T/C (dose: 8.0 mg/kg/injection, schedule: Q## X003 (ip), vehicle: saline): 158 % of control
T/C (dose: 8.0 mg/kg/injection, schedule: Q## X024 (ip), vehicle: saline): 194 % of control
T/C (dose: 9.0 mg/kg/injection, schedule: Q01DX009 (ip), vehicle: saline): 87 % of control and 89 % of control
T/C (dose: 10.0 mg/kg/injection, schedule: Q01DX009 (ip), vehicle: saline): 89 % of control and 91 % of control
T/C (dose: 16.0 mg/kg/injection, schedule: Q01DX001 (iv), vehicle: saline): 122 % of control
T/C (dose: 16.0 mg/kg/injection, schedule: Q01DX001 (oral), vehicle: saline): 102 % of control
T/C (dose: 16.0 mg/kg/injection, schedule: Q01DX009 (oral), vehicle: saline): 112 % of control
T/C (dose: 16.0 mg/kg/injection, schedule: Q03HX016 (ip), vehicle: saline): 165 % of control
T/C (dose: 16.0 mg/kg/injection, schedule: Q08DX002 (ip), vehicle: saline): 169 % of control
T/C (dose: 16.0 mg/kg/injection, schedule: Q## X024 (ip), vehicle: saline): 206 % of control
T/C (dose: 20.0 mg/kg/injection, schedule: Q01DX001 (ip), vehicle: saline): 108 % of control
T/C (dose: 32.0 mg/kg/injection, schedule: Q01DX001 (ip), vehicle: saline): 152 % of control
T/C (dose: 32.0 mg/kg/injection, schedule: Q01DX001 (oral), vehicle: saline): 103 % of control
T/C (dose: 32.0 mg/kg/injection, schedule: Q03HX016 (ip), vehicle: saline): 197 % of control
T/C (dose: 32.0 mg/kg/injection, schedule: Q08DX002 (ip), vehicle: saline): 159 % of control
T/C (dose: 32.0 mg/kg/injection, schedule: Q## X008 (ip), vehicle: saline): 150 % of control
T/C (dose: 64.0 mg/kg/injection, schedule: Q01DX001 (oral), vehicle: saline): 101 % of control
T/C (dose: 128.0 mg/kg/injection, schedule: Q01DX001 (oral), vehicle: saline): 101 % of control

CC1(C)NC(=O)N(CCOS(C)(=O)=O)C1=O
T/C (dose: 25.0 mg/kg/injection, schedule: Q04DX003 (ip), vehicle: saline): 101 % of control
T/C (dose: 50.0 mg/kg/injection, schedule: Q04DX003 (ip), vehicle: saline): 98 % of control
T/C (dose: 100.0 mg/kg/injection, schedule: Q04DX003 (ip), vehicle: saline): 104 % of control
T/C (dose: 200.0 mg/kg/injection, schedule: Q04DX003 (ip), vehicle: saline): 104 % of control
T/C (dose: 400.0 mg/kg/injection, schedule: Q04DX003 (ip), vehicle: saline): 93 % of control

O=C(O)CCCCCN1C(=O)c2cccnc2C1=O
T/C (dose: 75.0 mg/kg/injection, schedule: Q04DX003 (ip), vehicle: carboxymethylcellulose (CMC)): 103 % of control
T/C (dose: 150.0 mg/kg/injection, schedule: Q04DX003 (ip), vehicle: carboxymethylcellulose (CMC)): 97 % of control
T/C (dose: 300.0 mg/kg/injection, schedule: Q04DX003 (ip), vehicle: carboxymethylcellulose (CMC)): 98 % of control

Nc1c(Br)cc2c(c1Br)Cc1cc(Cl)ccc1-2
T/C (dose: 50.0 mg/kg/injection, schedule: Q01DX001 (ip), vehicle: carboxymethylcellulose (CMC)): 93 % of control
T/C (dose: 100.0 mg/kg/injection, schedule: Q01DX001 (ip), vehicle: carboxymethylcellulose (CMC)): 98 % of control
T/C (dose: 200.0 mg/kg/injection, schedule: Q01DX001 (ip), vehicle: carboxymethylcellulose (CMC)): 93 % of control
T/C (dose: 400.0 mg/kg/injection, schedule: Q01DX001 (ip), vehicle: carboxymethylcellulose (CMC)): 93 % of control

Br/C=C/c1ccccc1
T/C (dose: 100.0 mg/kg/injection, schedule: Q04DX002 (ip), vehicle: saline with Tween-80): 94 % of control
T/C (dose: 200.0 mg/kg/injection, schedule: Q04DX002 (ip), vehicle: saline with Tween-80): 97 % of control
T/C (dose: 400.0 mg/kg/injection, schedule: Q04DX002 (ip), vehicle: saline with Tween-80): 100 % of control

COC(=O)CCN1CC1(C)C (stereo unspecified)
T/C (dose: 25.0 mg/kg/injection, schedule: Q04DX003 (ip), vehicle: Klucel (hydroxypropylcellulose) (HPC)): 96 % of control
T/C (dose: 50.0 mg/kg/injection, schedule: Q04DX003 (ip), vehicle: Klucel (hydroxypropylcellulose) (HPC)): 98 % of control
T/C (dose: 100.0 mg/kg/injection, schedule: Q04DX003 (ip), vehicle: Klucel (hydroxypropylcellulose) (HPC)): 96 % of control

CCOC(=O)c1ccc(NCCCc2c(C)nc(N)[nH]c2=O)cc1
T/C (dose: 75.0 mg/kg/injection, schedule: Q01DX001 (ip), vehicle: saline with Tween-80): 92 % of control
T/C (dose: 150.0 mg/kg/injection, schedule: Q01DX001 (ip), vehicle: saline with Tween-80): 87 % of control
T/C (dose: 300.0 mg/kg/injection, schedule: Q01DX001 (ip), vehicle: saline with Tween-80): 90 % of control

O=c1ccc2nc3ccccc3sc-2c1
T/C (dose: 100.0 mg/kg/injection, schedule: Q04DX003 (ip), vehicle: saline with Tween-80): 89 % of control

CN(C)c1ccc(N=Nc2cccc([N+](=O)[O-])c2)cc1
T/C (dose: 100.0 mg/kg/injection, schedule: Q01DX009 (ip), vehicle: Klucel (hydroxypropylcellulose) (HPC)): 105 % of control
T/C (dose: 200.0 mg/kg/injection, schedule: Q01DX009 (ip), vehicle: Klucel (hydroxypropylcellulose) (HPC)): 97 % of control
T/C (dose: 400.0 mg/kg/injection, schedule: Q01DX009 (ip), vehicle: Klucel (hydroxypropylcellulose) (HPC)): 100 % of control
